Measured values reported in US20220104486A1 (priority 2019, published 2022).
Where two headings read alike, the source gives them in different places.

System: Fusarium graminearum
Format: in vivo
Conditions: seed treatment 0.3 mg ai/seed
[1] = corn, 36 days after planting, F. graminearum inoculum in furrow

Q: How did the “Count plant number per 12 row meter” value (corn (Zea mays, variety N29t), plant stand 36 days after planting, F. graminearum inoculum in furrow, on base treatment) turn out when `O=C(NCCc1ncc(C(F)(F)F)cc1Cl)c1ccccc1C(F)(F)F` [Fluopyram] was run?
A: 54.58, B per 12 row meter

Q: And the “efficacy against Fusarium graminearum, in words” value (corn field trial, high disease pressure)?
A: moderate control

Q: And the “% efficacy based on loss of plants due to disease” value [1]?
A: 49.95%

Q: And the “% loss of plants due to disease based on a maximum of 60 plants per 12 row meters” value [1]?
A: 9.03%

Q: And the “% loss of plants due to disease based on a maximum of 60 plants per 12 row meters” value (corn, 36 days after planting, F. graminearum inoculum in furrow, listed as commercial standard)?
A: 9%
